Laboratory results reported in the kinase profiling compilation of Christmann-Franck et al. (2016).

Key:
Experiment in all cases: radiometric filter-binding kinase assay
CAMKK2 (human) = CAMKK2 (human) (UniProt Q96RR4)
CDK2 CCNA2 (human) = CDK2 CCNA2 (human) (UniProt P20248+P24941)
CSK (human) = CSK (human) (UniProt P41240)
CaMK1 (human) = CaMK1 (human) (UniProt Q14012)
DYRK2 (human) = DYRK2 (human) (UniProt Q92630)
HIPK3 (human) = HIPK3 (human) (UniProt Q9H422)
LCK (mouse) = conditions: accession and sequence are those of the human protein
MAP2K1 (human) = MAP2K1 (human) (UniProt Q02750)
Chain of MAP2K1 (human) (Q02750 whole entry, looked up): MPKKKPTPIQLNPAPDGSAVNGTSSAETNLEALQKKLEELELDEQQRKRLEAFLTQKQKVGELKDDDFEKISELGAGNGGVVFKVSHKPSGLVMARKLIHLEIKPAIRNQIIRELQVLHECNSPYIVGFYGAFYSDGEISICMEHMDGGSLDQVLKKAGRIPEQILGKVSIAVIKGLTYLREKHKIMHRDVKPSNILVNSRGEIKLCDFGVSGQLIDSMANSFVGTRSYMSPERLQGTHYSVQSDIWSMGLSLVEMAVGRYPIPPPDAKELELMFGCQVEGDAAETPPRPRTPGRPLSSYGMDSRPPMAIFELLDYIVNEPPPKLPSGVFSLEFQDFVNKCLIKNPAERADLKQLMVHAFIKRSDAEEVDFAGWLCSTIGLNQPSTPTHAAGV

MAPK15 (human) = MAPK15 (human) (UniProt Q8TD08)
Chain of MAPK15 (human) (Q8TD08 whole entry, looked up): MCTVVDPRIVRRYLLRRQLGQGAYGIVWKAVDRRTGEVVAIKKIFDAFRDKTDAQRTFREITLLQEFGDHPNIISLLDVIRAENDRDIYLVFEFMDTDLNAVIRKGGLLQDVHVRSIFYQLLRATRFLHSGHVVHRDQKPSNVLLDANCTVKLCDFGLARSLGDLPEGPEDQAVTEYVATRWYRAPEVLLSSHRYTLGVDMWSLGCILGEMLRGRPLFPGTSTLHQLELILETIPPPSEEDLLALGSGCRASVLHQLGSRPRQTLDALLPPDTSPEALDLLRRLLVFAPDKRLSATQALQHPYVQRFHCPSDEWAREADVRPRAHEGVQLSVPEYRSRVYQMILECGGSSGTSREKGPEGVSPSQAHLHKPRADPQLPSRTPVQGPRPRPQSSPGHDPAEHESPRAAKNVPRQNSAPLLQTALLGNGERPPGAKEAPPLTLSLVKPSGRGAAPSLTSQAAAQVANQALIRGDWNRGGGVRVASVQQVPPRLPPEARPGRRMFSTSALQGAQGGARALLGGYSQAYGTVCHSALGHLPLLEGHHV

MAPKAPK2 (human) = MAPKAPK2 (human) (UniProt P49137)
MKNK1 (human) = MKNK1 (human) (UniProt Q9BUB5)
NEK2 (human) = NEK2 (human) (UniProt P51955)
NEK6 (human) = NEK6 (human) (UniProt Q9HC98)
PAK7 (human) = PAK7 (human) (UniProt Q9P286)
Chain of PAK7 (human) (Q9P286 whole entry, looked up): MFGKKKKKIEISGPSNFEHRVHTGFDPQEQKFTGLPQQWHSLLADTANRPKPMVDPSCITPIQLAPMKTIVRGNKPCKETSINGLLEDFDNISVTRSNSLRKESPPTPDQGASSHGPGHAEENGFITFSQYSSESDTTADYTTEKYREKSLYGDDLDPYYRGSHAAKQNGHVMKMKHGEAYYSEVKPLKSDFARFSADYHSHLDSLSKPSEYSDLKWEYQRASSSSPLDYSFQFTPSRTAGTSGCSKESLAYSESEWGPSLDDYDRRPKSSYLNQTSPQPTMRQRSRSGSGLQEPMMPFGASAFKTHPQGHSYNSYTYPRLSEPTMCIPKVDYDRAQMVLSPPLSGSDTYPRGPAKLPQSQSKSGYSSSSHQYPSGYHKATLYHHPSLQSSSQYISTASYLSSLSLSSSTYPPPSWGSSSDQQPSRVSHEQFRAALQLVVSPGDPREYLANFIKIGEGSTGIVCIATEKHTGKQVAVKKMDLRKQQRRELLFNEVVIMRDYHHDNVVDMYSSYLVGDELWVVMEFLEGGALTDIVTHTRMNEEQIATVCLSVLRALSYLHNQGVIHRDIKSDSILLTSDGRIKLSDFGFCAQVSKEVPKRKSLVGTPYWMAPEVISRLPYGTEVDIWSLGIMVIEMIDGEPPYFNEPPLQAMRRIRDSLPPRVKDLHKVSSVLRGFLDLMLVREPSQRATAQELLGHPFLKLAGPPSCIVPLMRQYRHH

PHKG1 (human) = PHKG1 (human) (UniProt Q16816)
PRKAA1 or PRKAA2 (rat) = conditions: accession and sequence are those of the human protein
PRKACA (human) = PRKACA (human) (UniProt P17612)
PRKCA (human) = PRKCA (human) (UniProt P17252)
RPS6KA5 KD1 KD2 (human) = RPS6KA5 KD1 KD2 (human) (UniProt O75582)
Chain of RPS6KA5 KD1 KD2 (human) (O75582 whole entry, looked up): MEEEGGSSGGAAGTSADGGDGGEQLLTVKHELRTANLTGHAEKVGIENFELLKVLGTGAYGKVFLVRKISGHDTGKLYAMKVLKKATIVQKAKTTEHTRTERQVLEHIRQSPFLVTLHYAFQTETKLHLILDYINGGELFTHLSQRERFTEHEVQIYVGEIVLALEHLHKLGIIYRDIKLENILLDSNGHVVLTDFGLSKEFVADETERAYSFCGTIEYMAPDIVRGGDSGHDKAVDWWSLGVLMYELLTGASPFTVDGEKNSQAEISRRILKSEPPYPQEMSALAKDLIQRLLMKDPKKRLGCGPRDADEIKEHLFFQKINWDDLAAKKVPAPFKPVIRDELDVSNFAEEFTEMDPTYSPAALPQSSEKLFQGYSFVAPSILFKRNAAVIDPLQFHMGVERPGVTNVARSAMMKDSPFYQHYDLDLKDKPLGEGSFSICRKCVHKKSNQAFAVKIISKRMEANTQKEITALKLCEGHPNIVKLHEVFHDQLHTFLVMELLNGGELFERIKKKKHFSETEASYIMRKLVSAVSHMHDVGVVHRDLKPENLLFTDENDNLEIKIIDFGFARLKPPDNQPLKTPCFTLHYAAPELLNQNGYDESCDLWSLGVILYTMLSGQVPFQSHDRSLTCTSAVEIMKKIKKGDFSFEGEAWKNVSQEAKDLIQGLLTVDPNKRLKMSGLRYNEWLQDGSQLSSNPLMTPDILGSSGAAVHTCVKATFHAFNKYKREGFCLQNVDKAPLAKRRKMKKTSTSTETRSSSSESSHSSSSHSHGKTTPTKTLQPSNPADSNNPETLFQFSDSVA

SRPK1 (human) = SRPK1 (human) (UniProt Q96SB4)
Chain of SRPK1 (human) (Q96SB4 whole entry, looked up): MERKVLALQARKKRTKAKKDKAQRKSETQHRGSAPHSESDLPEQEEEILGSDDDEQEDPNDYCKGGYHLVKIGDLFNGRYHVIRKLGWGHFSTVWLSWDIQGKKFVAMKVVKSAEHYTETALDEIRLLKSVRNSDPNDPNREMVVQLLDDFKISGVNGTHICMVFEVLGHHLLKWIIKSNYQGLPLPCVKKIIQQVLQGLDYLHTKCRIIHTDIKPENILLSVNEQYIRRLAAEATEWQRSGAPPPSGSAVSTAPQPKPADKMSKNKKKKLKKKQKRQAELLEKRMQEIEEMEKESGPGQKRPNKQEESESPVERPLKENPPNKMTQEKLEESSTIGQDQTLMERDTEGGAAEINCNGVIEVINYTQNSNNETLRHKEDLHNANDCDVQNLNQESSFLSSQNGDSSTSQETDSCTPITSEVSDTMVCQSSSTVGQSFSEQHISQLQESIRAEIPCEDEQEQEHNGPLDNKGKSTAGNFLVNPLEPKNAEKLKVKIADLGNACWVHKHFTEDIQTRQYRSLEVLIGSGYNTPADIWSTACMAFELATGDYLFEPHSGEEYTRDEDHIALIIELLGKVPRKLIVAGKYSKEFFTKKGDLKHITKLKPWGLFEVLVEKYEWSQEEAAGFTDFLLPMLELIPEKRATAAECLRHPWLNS

BTK (human) = BTK (human) (UniProt Q06187)
EPHA2 (human) = EPHA2 (human) (UniProt P29317)
INSR (human) = INSR (human) (UniProt P06213)
INSRR (human) = INSRR (human) (UniProt P14616)
MST4 (human) = MST4 (human) (UniProt Q9P289)

Chain of HIPK3 (human) (Q9H422 whole entry, looked up): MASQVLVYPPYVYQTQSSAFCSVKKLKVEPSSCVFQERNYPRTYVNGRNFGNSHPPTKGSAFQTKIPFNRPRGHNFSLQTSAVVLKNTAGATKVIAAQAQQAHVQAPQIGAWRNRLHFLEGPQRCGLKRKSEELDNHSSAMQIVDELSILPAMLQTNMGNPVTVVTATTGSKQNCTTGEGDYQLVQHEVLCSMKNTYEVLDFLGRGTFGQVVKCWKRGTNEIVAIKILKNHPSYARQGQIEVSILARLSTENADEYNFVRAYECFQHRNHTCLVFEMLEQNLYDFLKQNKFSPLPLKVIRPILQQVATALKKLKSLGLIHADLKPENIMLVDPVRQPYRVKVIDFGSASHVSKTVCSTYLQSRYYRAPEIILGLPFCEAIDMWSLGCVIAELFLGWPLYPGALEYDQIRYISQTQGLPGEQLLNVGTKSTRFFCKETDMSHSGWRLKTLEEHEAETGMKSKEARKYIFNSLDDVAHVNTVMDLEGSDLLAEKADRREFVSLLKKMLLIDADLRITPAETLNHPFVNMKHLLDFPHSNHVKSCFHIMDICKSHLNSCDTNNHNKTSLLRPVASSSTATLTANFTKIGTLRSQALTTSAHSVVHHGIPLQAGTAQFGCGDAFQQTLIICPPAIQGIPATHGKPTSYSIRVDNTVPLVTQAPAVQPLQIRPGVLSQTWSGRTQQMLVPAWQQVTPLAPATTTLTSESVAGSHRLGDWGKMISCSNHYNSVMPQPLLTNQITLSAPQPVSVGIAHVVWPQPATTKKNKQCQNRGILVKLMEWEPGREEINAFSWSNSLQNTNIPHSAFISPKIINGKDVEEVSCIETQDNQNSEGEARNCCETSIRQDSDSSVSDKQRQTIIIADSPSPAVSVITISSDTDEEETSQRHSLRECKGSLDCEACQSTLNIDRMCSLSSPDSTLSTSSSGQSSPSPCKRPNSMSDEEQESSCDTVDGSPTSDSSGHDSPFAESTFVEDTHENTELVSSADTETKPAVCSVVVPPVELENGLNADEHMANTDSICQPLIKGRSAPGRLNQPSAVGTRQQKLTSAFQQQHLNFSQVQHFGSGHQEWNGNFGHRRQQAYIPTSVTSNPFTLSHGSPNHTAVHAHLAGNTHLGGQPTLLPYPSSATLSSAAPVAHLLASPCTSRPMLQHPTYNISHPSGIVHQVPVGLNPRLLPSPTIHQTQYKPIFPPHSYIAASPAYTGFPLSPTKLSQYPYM

`Cc1cccc(Nc2nn(C)c3ncnc(N)c23)c1` was tested, and the residual activity (CAMKK2 (human); compound 1.0 µM) was 125%, the residual activity (CAMKK2 (human); compound 10.0 µM) was 117% and the residual activity (CDK2 CCNA2 (human); compound 1.0 µM) was 97%. The residual activity (CDK2 CCNA2 (human); compound 10.0 µM) was 91%, the residual activity (CSK (human); compound 1.0 µM) was 97% and the residual activity (CSK (human); compound 10.0 µM) was 85%. For the same compound, the residual activity (CaMK1 (human); compound 1.0 µM) was 92%, the residual activity (CaMK1 (human); compound 10.0 µM) was 89% and the residual activity (DYRK2 (human); compound 1.0 µM) was 93%. It also gave a residual activity (DYRK2 (human); compound 10.0 µM) of 89%, a residual activity (HIPK3 (human); compound 1.0 µM) of 136% and a residual activity (HIPK3 (human); compound 10.0 µM) of 138%. For the same compound, the residual activity (LCK (mouse); compound 1.0 µM) was 125%, the residual activity (LCK (mouse); compound 10.0 µM) was 131% and the residual activity (MAP2K1 (human); compound 1.0 µM) was 187%. For the same compound, the residual activity (MAP2K1 (human); compound 10.0 µM) was 191%, the residual activity (MAPK15 (human); compound 1.0 µM) was 76% and the residual activity (MAPK15 (human); compound 10.0 µM) was 93%. The residual activity (MAPKAPK2 (human); compound 1.0 µM) was 101%, the residual activity (MAPKAPK2 (human); compound 10.0 µM) was 104% and the residual activity (MKNK1 (human); compound 1.0 µM) was 92%. The residual activity (MKNK1 (human); compound 10.0 µM) was 96%, the residual activity (NEK2 (human); compound 1.0 µM) was 107% and the residual activity (NEK2 (human); compound 10.0 µM) was 115%. The residual activity (NEK6 (human); compound 1.0 µM) was 73%, the residual activity (NEK6 (human); compound 10.0 µM) was 81% and the residual activity (PAK7 (human); compound 1.0 µM) was 139%. For the same compound, the residual activity (PAK7 (human); compound 10.0 µM) was 124%, the residual activity (PHKG1 (human); compound 1.0 µM) was 106% and the residual activity (PHKG1 (human); compound 10.0 µM) was 101%. For the same compound, the residual activity (PRKAA1 or PRKAA2 (rat); compound 1.0 µM) was 111%, the residual activity (PRKAA1 or PRKAA2 (rat); compound 10.0 µM) was 114% and the residual activity (PRKACA (human); compound 1.0 µM) was 106%. It also gave a residual activity (PRKACA (human); compound 10.0 µM) of 98%, a residual activity (PRKCA (human); compound 1.0 µM) of 102% and a residual activity (PRKCA (human); compound 10.0 µM) of 117%. For the same compound, the residual activity (RPS6KA5 KD1 KD2 (human); compound 1.0 µM) was 92%, the residual activity (RPS6KA5 KD1 KD2 (human); compound 10.0 µM) was 100% and the residual activity (SRPK1 (human); compound 1.0 µM) was 107%. The residual activity (SRPK1 (human); compound 10.0 µM) was 98%.

`O=C1Nc2nc(-c3c(O)cccc3OCC3CC3)cc(C3CCCNC3)c2CO1` (stereo unspecified) was tested, and the residual activity (BTK (human); compound 1.0 µM) was 100%, the residual activity (BTK (human); compound 10.0 µM) was 83% and the residual activity (CAMKK2 (human); compound 1.0 µM) was 94%. The residual activity (CAMKK2 (human); compound 10.0 µM) was 78%, the residual activity (CDK2 CCNA2 (human); compound 1.0 µM) was 58% and the residual activity (CDK2 CCNA2 (human); compound 10.0 µM) was 14%. It also gave a residual activity (CSK (human); compound 1.0 µM) of 91%, a residual activity (CSK (human); compound 10.0 µM) of 92% and a residual activity (CaMK1 (human); compound 1.0 µM) of 54%. The residual activity (CaMK1 (human); compound 10.0 µM) was 13%, the residual activity (DYRK2 (human); compound 1.0 µM) was 99% and the residual activity (DYRK2 (human); compound 10.0 µM) was 77%. It also gave a residual activity (EPHA2 (human); compound 1.0 µM) of 96%, a residual activity (EPHA2 (human); compound 10.0 µM) of 84% and a residual activity (INSR (human); compound 1.0 µM) of 94%. It also gave a residual activity (INSR (human); compound 10.0 µM) of 96%, a residual activity (INSRR (human); compound 1.0 µM) of 78% and a residual activity (INSRR (human); compound 10.0 µM) of 45%. For the same compound, the residual activity (LCK (mouse); compound 1.0 µM) was 88%, the residual activity (LCK (mouse); compound 10.0 µM) was 74% and the residual activity (MAP2K1 (human); compound 1.0 µM) was 79%. It also gave a residual activity (MAP2K1 (human); compound 10.0 µM) of 62%, a residual activity (MAPK15 (human); compound 1.0 µM) of 53% and a residual activity (MAPK15 (human); compound 10.0 µM) of 10%. It also gave a residual activity (MKNK1 (human); compound 1.0 µM) of 97%, a residual activity (MKNK1 (human); compound 10.0 µM) of 74% and a residual activity (MST4 (human); compound 1.0 µM) of 105%. For the same compound, the residual activity (MST4 (human); compound 10.0 µM) was 85%, the residual activity (NEK2 (human); compound 1.0 µM) was 83% and the residual activity (NEK2 (human); compound 10.0 µM) was 81%. It also gave a residual activity (NEK6 (human); compound 1.0 µM) of 98%, a residual activity (NEK6 (human); compound 10.0 µM) of 93% and a residual activity (PAK7 (human); compound 1.0 µM) of 82%. It also gave a residual activity (PAK7 (human); compound 10.0 µM) of 72%, a residual activity (PHKG1 (human); compound 1.0 µM) of 70% and a residual activity (PHKG1 (human); compound 10.0 µM) of 21%. The residual activity (PRKAA1 or PRKAA2 (rat); compound 1.0 µM) was 87%, the residual activity (PRKAA1 or PRKAA2 (rat); compound 10.0 µM) was 54% and the residual activity (PRKACA (human); compound 1.0 µM) was 79%. The residual activity (PRKACA (human); compound 10.0 µM) was 65%, the residual activity (PRKCA (human); compound 1.0 µM) was 77% and the residual activity (PRKCA (human); compound 10.0 µM) was 31%. For the same compound, the residual activity (RPS6KA5 KD1 KD2 (human); compound 1.0 µM) was 71%, the residual activity (RPS6KA5 KD1 KD2 (human); compound 10.0 µM) was 31% and the residual activity (SRPK1 (human); compound 1.0 µM) was 98%. It also gave a residual activity (SRPK1 (human); compound 10.0 µM) of 65%.

In the case of `Cn1nc(Nc2ccc(F)cc2)c2c(N)ncnc21`, the residual activity (CAMKK2 (human); compound 1.0 µM) is reported as 112%, the residual activity (CAMKK2 (human); compound 10.0 µM) is reported as 120% and the residual activity (CDK2 CCNA2 (human); compound 1.0 µM) is reported as 98%. For the same compound, the residual activity (CDK2 CCNA2 (human); compound 10.0 µM) was 96%, the residual activity (CSK (human); compound 1.0 µM) was 88% and the residual activity (CSK (human); compound 10.0 µM) was 76%. It also gave a residual activity (CaMK1 (human); compound 1.0 µM) of 103%, a residual activity (CaMK1 (human); compound 10.0 µM) of 97% and a residual activity (DYRK2 (human); compound 1.0 µM) of 86%. It also gave a residual activity (DYRK2 (human); compound 10.0 µM) of 83%, a residual activity (HIPK3 (human); compound 1.0 µM) of 143% and a residual activity (HIPK3 (human); compound 10.0 µM) of 136%. The residual activity (LCK (mouse); compound 1.0 µM) was 112%, the residual activity (LCK (mouse); compound 10.0 µM) was 81% and the residual activity (MAP2K1 (human); compound 1.0 µM) was 108%. For the same compound, the residual activity (MAP2K1 (human); compound 10.0 µM) was 104%, the residual activity (MAPK15 (human); compound 1.0 µM) was 76% and the residual activity (MAPK15 (human); compound 10.0 µM) was 70%. For the same compound, the residual activity (MAPKAPK2 (human); compound 1.0 µM) was 97%, the residual activity (MAPKAPK2 (human); compound 10.0 µM) was 95% and the residual activity (MKNK1 (human); compound 1.0 µM) was 95%. It also gave a residual activity (MKNK1 (human); compound 10.0 µM) of 92%, a residual activity (NEK2 (human); compound 1.0 µM) of 102% and a residual activity (NEK2 (human); compound 10.0 µM) of 100%. It also gave a residual activity (NEK6 (human); compound 1.0 µM) of 95%, a residual activity (NEK6 (human); compound 10.0 µM) of 95% and a residual activity (PAK7 (human); compound 1.0 µM) of 109%. It also gave a residual activity (PAK7 (human); compound 10.0 µM) of 125%, a residual activity (PHKG1 (human); compound 1.0 µM) of 113% and a residual activity (PHKG1 (human); compound 10.0 µM) of 119%. The residual activity (PRKAA1 or PRKAA2 (rat); compound 1.0 µM) was 105%, the residual activity (PRKAA1 or PRKAA2 (rat); compound 10.0 µM) was 107% and the residual activity (PRKACA (human); compound 1.0 µM) was 106%. It also gave a residual activity (PRKACA (human); compound 10.0 µM) of 107%, a residual activity (PRKCA (human); compound 1.0 µM) of 120% and a residual activity (PRKCA (human); compound 10.0 µM) of 121%. The residual activity (RPS6KA5 KD1 KD2 (human); compound 1.0 µM) was 97%, the residual activity (RPS6KA5 KD1 KD2 (human); compound 10.0 µM) was 84% and the residual activity (SRPK1 (human); compound 1.0 µM) was 137%. It also gave a residual activity (SRPK1 (human); compound 10.0 µM) of 129%.
